Reference: publication PMC12081877 (Nature Communications, 2025)

How the values were obtained:
[1] = system: a panel of M^pro mutants; assay type: biochemical, SARS-CoV-2
[2] = system: ISM3312 P18 virus; assay type: cell-based, SARS-CoV-2

SMILES | resistance level [1] | resistance level against the ISM3312 P18 virus [2]
Cn1cnc(Cn2c(=O)[nH]/c(=N\c3cc4cn(C)nc4cc3Cl)n(Cc3cc(F)c(F)cc3F)c2=O)n1 [Ensitrelvir] | moderate- to high-levels resistance | 
CC(C)(C)[C@H](NC(=O)C(F)(F)F)C(=O)N1C[C@H]2[C@@H]([C@H]1C(=O)N[C@H](C#N)C[C@@H]1CCNC1=O)C2(C)C [Nirmatrelvir] |  | no resistance (key: white, no resistance ( < threefold); light blue, low-level resistance (3- to 10-fold); Medium blue, moderate-level resistance (10- to 50-fold); dark blue, high-level resistance ( > 50-fold))
